Peptide text beside a SMILES is read from it. * marks the point of attachment. Cbz = O=C(OCc1ccccc1)*
How the values were obtained:
Format in all cases: cell-based, human
HEK293 cells = assay: alamarBlue cytotoxicity assessment in HEK293 cells; settings: HEK293, alamarBlue, 16 h; concentration not given
Description: Figure S2: Concentration-dependent cytotoxicity assessment of RUN compounds.
HEK293 cells were treated for 16 hours with increasing concentrations of RUN compounds (1.25 µM; 2.5 µM; 5; 7.5 and 10 µM) or DMSO (negative control). Cell viability was determined using the alamarBlue assay following the protocol of Riss.(1) Data are presented as means ± SD from three independent experiments (n = 3). Statistical analysis was done using repeated measures one-way ANOVA with Geisser–Greenhouse correction, followed by Dunnett’s multiple comparisons test. *p<0.05. Detailed results of the analysis are shown in […]
(1 picture or pasted object on this page, not shown here)
(§1) 2 Biology Experimental Procedures
(§2) Safety statement: No unexpected or unusually high safety hazards were encountered. […]
Cell lines were sourced from the ATCC (USA) and/or ECACC (UK), namely HCT116 (human colorectal carcinoma), ATCC CCL-247 (RRID:CVCL_0291), HEK-293 (human embryonic kidney), ATCC CRL-1573 (RRID:CVCL_0045), SH-SY5Y (human neuroblastoma), ATCC CRL-2266 (RRID:CVCL_0019). The characteristics of DDI2 knockout cells derived from HCT116 cells have been described previously (Sedlacek et al., 2025). All cell lines were tested for mycoplasma contamination. Most of the cell lines were cultured in Dulbecco's Modified Eagle Medium (DMEM) enriched with 10% fetal bovine serum (FBS) and 2 mM L-glutamine, under standard conditions of 37 °C with 5% CO₂. DNA transfection was performed with Lipofectamine 2000, following the manufacturer's instructions. Transgenic cells were then selected with either G418 (400 µg/mL) or hygromycin B (450 µg/mL), based on the selection marker encoded by the plasmid used. […]

NFE2L1 pathway = assay: 3×PSMA4-ARE-LUC dual luciferase reporter assay in HEK293 cells; settings: Homo sapiens; 5 μM, 16 h, HEK293, luminescence relative to DMSO-treated cells; read-out: NFE2L1 activation [5 μM]
Text: In our previous work,[43] we developed a library of NFE2L1 stimulators using a cell-based luciferase reporter assay. This system was based on three tandem copies of the antioxidant response element (ARE) derived from the NFE2L1 target gene proteasome subunit alpha type-4 (3xPSMA4, PSMA4-ARE-LUC). It was designed to detect the proteasome “bounce-back” response induced by proteasome inhibitors such as MG132 or bortezomib.[22,43,45,46] The reporter assay was adapted to a 384-well format and used to evaluate a new set of RUN compounds designed around the structural framework of the RUN-47 activator. We focused on identifying compounds that increased the 3×PSMA4-ARE-LUC signal (Fig. 1A), while simultaneously assessing cytotoxicity (see the SI, Fig. S2). […] In contrast, thiourea- and urea-containing derivatives generally produced only weak to intermediate responses, rarely exceeding a fold change of 7.
Fig. 1 (A) Targeted library screening of RUN compounds using the 3×PSMA4-ARE-LUC dual reporter assay in HEK293 cells. Cells were exposed to RUN compounds (5 μM) for 16 hours, and luciferase activity was measured. Data are presented as the mean ± SD from three independent experiments (n = 3). Results are shown as a fold change in luminescence relative to DMSO-treated cells. Selected hit compounds are highlighted in distinct colours. (B) RUN-89 specifically activates the NFE2L1 pathway. The DDI2 knockout (KO) and parental (WT) HCT116 cells were transfected with the 3×PSMA4-ARE-LUC reporter and treated with 0.5 μM bortezomib (BTZ) and 5 μM RUN-89 for 16 hours. Data are presented as the Geomean ± GeoSD of three independent experiments (n = 3). Statistical analysis was performed on log2-transformed values using two-way repeated-measures ANOVA followed by Šídak's multiple comparison test. (C) RUN-89 selectively triggers downstream signaling events associated with NFE2L1 gene expression. HEK293 cells were transfected with lipid nanoparticles (LNPs) carrying siRNAs targeting NFE2L1 or NFE2L2. LNPs formulated with non-targeting siRNA served as a negative control. Following 24 hours of incubation, cells were treated with 7.5 μM RUN-89 or DMSO (vehicle) for an additional 16 hours. Expression of the proteasomal subunit gene PSMC4 was then quantified by RT-qPCR. Data are shown as the Geomean ± GeoSD from three independent biological replicates (n = 3). Log2-transformed data were analyzed using two-way repeated-measures ANOVA with the Geisser–Greenhouse correction, followed by Tukey's multiple comparison test with individual variances computed for each comparison. Additional results for NFE2L1, NFE2L2, PSMB7, and PSMD12 are presented in SI Fig. S10.
Figure S1: Concentration–response of luciferase cell-based assay (PSMA4-ARE-luc2P reporter) on treatment with RUN-81, RUN-89, and RUN-94. Concentration is plotted on the X-axis. Dose–response relationships were analyzed using a four-parameter logistic curve (4PL), or a bell-shaped dose-response curve, both with weighting 1/Y^2. Dotted lines represent 95% confidence bands. Calculated EC₅₀ values, curve parameters, and asymmetrical confidence intervals are summarized in the accompanying table . Data are presented as mean ± SD from four independent experiments (n=4).
as §1, §2
Most of the cell lines were cultured in Dulbecco's Modified Eagle Medium (DMEM) enriched with 10% fetal bovine serum (FBS) and 2 mM L-glutamine, under standard conditions of 37 °C with 5% CO₂. DNA transfection was performed with Lipofectamine 2000, following the manufacturer's instructions. Transgenic cells were then selected with either G418 (400 µg/mL) or hygromycin B (450 µg/mL), based on the selection marker encoded by the plasmid used. Cell viability was evaluated using the […]

IRE1/XBP1s = assay: XBP1 endoplasmic reticulum stress reporter assay (CMV-XBP-GLuc); settings: Figure S5; for Mean 2 (mean of log2-transformed values, treatment; DMSO = 0): N = 3; for Mean diff, DMSO vs. treatment (log2-transformed values): Dunnett's multiple comparisons test
Text: Next, we investigated whether the selected RUN compounds activate the NFE2L1 transcriptional program without triggering the unfolded protein response (UPR), a crucial cellular process induced by the accumulation of unfolded proteins in the endoplasmic reticulum (ER), potentially leading to ER stress. To monitor this, an alternative reporter was used to assess the activation of IRE1/XBP1s.[47] IRE1 is a bifunctional serine/threonine kinase and endoribonuclease embedded in the ER membrane, playing a central role in UPR signaling. Its RNase activity facilitates the splicing of X-box binding protein 1 (XBP1) mRNA. The spliced XBP1 acts as a transcription factor, promoting the re-establishment of ER homeostasis by upregulating genes involved in the ER-associated degradation (ERAD) pathway.[48–50] The reporter contains Gaussia luciferase positioned out of frame downstream of the XBP1 splice site, ensuring that active luciferase translation occurs only in the presence of ER stress.[51,52] Cells transfected with this reporter were treated with RUN compounds at 1, 5, and 10 μM, and luciferase activity was measured.
Figure S5: Impact of RUN compounds on ER stress-induced activation of the XBP1 reporter.
HEK293 cells were transfected with the CMV-XBP-GLuc reporter plasmid and allowed to stabilize overnight. Following stabilization, the cells were treated with MG132 or various concentrations of the test compounds (1, 2, 3, 5, 7.5, and 10 µM) for 16 hours. The Gaussia luciferase signal, which reflects XBP1 mRNA splicing, was adjusted based on cell viability as measured by the alamarBlue assay. Data are represented as Geomean ± GeoSD of three independent experiments ( n = 3. Statistical comparison of MG132 and RUN compounds vs DMSO and RUN compounds vs MG132 was performed on log2-transformed values using two-way repeated-measures ANOVA with Geisser –Greenhouse correction, followed by Dunnett’s multiple comparisons test with individual variances computed for each comparison. Results of the analysis are shown in Supplementary Table S15. […]
GraphPad Prism (v 10.6.1).
2.8 XBP1-endoplasmic reticulum (ER) stress reporter assay
HEK293 cells were seeded in 6-well plates and incubated for 24 hours before being transfected with a plasmid containing the CMV-XBP-Gluc reporter using Lipofectamine 2000.(4) After 6 hours, the transfected cells were subsequently transferred to 384-well plates, stabilized overnight, and treated with the proteasome inhibitor and ER stress inducer MG132 and/or various concentrations of RUN compounds (1, 5, and 10 µM) or vehicle (DMSO) for 16 hours. Luciferase activity was normalized to cell viability, which was assessed using the alamarBlue assay. The results are expressed as the fold change compared with the DMSO control, with the experiment conducted in biological triplicate. […]

SNCA-EGFP = SNCA-EGFP degradation in SH-SY5Y cells
Description: This reporter is prone to aggregation because of its slow protein turnover. To assess compound efficacy, we measured the fluorescence signal of GFP-tagged synuclein within aggregates.
The GFP fluorescence signal was then normalized to that of the DMSO control and the cell number. The experiment was performed in at least five biological replicates. Statistical analysis was performed using paired t-tests with Holm–Šídák correction for multiple comparisons (α = […]
SH-SY5Y cells stably expressing SNCA-EGFP were seeded on a plate and allowed to […]
tadalafil (5 µM), or RUN compounds at a concentration of 1 µM or treated with an equivalent volume of DMSO dissolved in buffer as a vehicle control. The treatment was performed for 16 hours and then fluorescence was measured. The GFP signal intensity was normalized to both the DMSO control and the cell count.

[1] = SH-SY5Y, SNCA-EGFP degron, Figure S7

SMILES | Tox [% of ctrl.] (HEK293 cells) | fold induction at 5 µM (NFE2L1 pathway) | also measured
COc1ccc(/C=C2\CN(C(=O)CCN)C/C(=C\c3ccc(OC)c(OC)c3)C2=O)cc1OC [RUN-117] | 83% of ctrl. | 1 | 
COc1ccc(/C=C2\CC(NC(=O)CCCN)C/C(=C\c3ccc(OC)c(OC)c3)C2=O)cc1OC.O=C(O)C(F)(F)F (centres unmarked) [RUN-100] | 100% of ctrl. | 1.2 | 
CC(C)C[C@@H](C=O)NC(=O)[C@H](CC(C)C)NC(=O)[C@H](CC(C)C)NC(=O)OCc1ccccc1 [MG132] (Cbz-Leu-Leu-Leu-aldehyde) |  |  | Mean 2 (mean of log2-transformed values, treatment; DMSO = 0) (IRE1/XBP1s; 1 µM): 2.106; Mean 2 (mean of log2-transformed values, treatment; DMSO = 0) (IRE1/XBP1s; 5 µM): 2.725; Mean 2 (mean of log2-transformed values, treatment; DMSO = 0) (IRE1/XBP1s; 10 uM): 3.956; Mean diff, DMSO vs. treatment (log2-transformed values) (IRE1/XBP1s; DMSO vs. 1 µM): -2.106; Mean diff, DMSO vs. treatment (log2-transformed values) (IRE1/XBP1s; DMSO vs. 5 µM): -2.725; Mean diff, DMSO vs. treatment (log2-transformed values) (IRE1/XBP1s; DMSO vs. 10 uM): -3.956
COc1ccc(/C=C2\CN(C(=O)[C@@H]3CCC(=O)N3)C/C(=C\c3ccc(OC)c(OC)c3)C2=O)cc1OC [RUN-110] | 85% of ctrl. | 1.8 | 
COc1ccc(/C=C2\CN(C(=S)Nc3cccnc3)C/C(=C\c3ccc(OC)c(OC)c3)C2=O)cc1OC [RUN-73] | 84% of ctrl. | 1.9 | 
CCN(CC)CC(=O)NC1C/C(=C\c2ccc(OC)c(OC)c2)C(=O)/C(=C/c2ccc(OC)c(OC)c2)C1 (centres unmarked) [RUN-102] | 96% of ctrl. | 1.3 | 
COc1ccc(/C=C2\CN(C(=O)CN3CCN(C)CC3)C/C(=C\c3ccc(OC)c(OC)c3)C2=O)cc1OC [RUN-105] | 78% of ctrl. | 4.5 | 
CN1CC(=O)N2[C@H](c3ccc4c(c3)OCO4)c3[nH]c4ccccc4c3C[C@@H]2C1=O [tadalafil, reference compound] |  |  | EGFP-SNCA aggregation (GFP signal) (SNCA-EGFP; SH-SY5Y SNCA-EGFP, 16 h, RUN compounds 1 μM, PD169316 3 μM, tadalafil 5 μM): reduction; Geometric mean of ratios (paired t tests, Treatment vs Control = 100) (SNCA-EGFP; [1]): -20.51; Geometric mean, Treatment (Control = 100) (SNCA-EGFP; [1]): 79.49
COCCOCCOCC(=O)N1C/C(=C\c2ccc(OC)c(OC)c2)C(=O)/C(=C/c2ccc(OC)c(OC)c2)C1 [RUN-82] | 85% of ctrl. | 3.2 | 
